Results as given in US10669272B2, “Substituted naphthyridinone compounds useful as T cell activators” (BRISTOL-MYERS SQUIBB COMPANY, priority 2018, dated 2020).
Like-named read-outs stand apart in the source and are kept apart here.

Tests used:
[1] = target: T1, human DGKα (Homo sapiens, UniProt P23743); test: DGKα LIPGLO assay (extruded liposome substrate), in vitro DGK inhibition; format: biochemical; settings: read-out: DGKa LIPGLO IC50
T1 construct: TVMV protease cleavage site (C); Hexa-His (C); made in house; host or cells: Sf9 insect cells (baculovirus, Bac-to-Bac)
T1 sequence (P23743 with tags, fused parts or gaps): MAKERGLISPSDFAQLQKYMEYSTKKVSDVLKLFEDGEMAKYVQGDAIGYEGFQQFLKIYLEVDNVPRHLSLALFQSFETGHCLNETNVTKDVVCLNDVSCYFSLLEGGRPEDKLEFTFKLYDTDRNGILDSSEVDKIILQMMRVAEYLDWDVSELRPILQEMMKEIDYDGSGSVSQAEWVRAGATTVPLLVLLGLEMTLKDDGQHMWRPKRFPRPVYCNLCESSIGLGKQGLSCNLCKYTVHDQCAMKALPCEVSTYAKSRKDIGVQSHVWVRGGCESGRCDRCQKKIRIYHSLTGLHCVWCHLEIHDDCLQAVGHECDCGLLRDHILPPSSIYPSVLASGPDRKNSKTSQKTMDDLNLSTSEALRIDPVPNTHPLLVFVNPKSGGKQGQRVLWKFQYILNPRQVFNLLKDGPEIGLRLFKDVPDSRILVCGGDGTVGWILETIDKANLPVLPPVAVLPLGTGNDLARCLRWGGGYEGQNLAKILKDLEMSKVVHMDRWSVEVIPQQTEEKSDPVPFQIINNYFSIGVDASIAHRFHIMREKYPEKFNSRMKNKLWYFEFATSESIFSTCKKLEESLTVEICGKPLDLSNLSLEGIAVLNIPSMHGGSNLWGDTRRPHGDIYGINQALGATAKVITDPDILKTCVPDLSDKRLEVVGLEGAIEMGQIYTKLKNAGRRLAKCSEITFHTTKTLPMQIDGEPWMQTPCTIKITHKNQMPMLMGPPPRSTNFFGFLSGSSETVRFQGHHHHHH

[2] = target: T2, human DGKζ (Homo sapiens, UniProt Q13574); test: DGKζ LIPGLO assay (extruded liposome substrate), in vitro DGK inhibition; format: biochemical; settings: read-out: DGKz LIPGLO IC50
T2 construct: TVMV protease cleavage site (C); Hexa-His (C); made in house; host or cells: Sf9 insect cells (baculovirus, Bac-to-Bac)
T2 sequence (Q13574 with tags, fused parts or gaps isoform Q13574-4): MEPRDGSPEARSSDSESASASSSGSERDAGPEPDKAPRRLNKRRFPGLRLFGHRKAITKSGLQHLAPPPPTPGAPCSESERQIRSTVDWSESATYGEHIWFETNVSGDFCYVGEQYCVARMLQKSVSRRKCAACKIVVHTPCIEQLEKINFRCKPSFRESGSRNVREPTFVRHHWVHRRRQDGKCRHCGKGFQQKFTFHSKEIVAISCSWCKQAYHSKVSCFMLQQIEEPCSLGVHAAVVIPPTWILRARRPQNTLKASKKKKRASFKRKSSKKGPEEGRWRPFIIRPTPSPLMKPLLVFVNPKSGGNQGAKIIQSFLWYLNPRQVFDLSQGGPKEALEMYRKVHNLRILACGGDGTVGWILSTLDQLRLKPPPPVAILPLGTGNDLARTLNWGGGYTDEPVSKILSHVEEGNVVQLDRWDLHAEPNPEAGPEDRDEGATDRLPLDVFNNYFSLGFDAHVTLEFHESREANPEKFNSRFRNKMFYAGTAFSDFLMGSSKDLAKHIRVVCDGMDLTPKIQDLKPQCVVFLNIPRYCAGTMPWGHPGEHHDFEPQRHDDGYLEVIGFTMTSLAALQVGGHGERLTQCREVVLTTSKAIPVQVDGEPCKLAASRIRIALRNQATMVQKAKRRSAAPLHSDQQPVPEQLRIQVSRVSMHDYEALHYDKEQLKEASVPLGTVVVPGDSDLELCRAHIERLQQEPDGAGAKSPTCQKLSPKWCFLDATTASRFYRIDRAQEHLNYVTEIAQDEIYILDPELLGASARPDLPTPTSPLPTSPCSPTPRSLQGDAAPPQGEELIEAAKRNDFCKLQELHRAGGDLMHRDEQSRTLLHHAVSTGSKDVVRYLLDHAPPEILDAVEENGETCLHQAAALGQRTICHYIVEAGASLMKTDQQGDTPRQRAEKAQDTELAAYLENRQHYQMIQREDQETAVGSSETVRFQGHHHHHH

[3] = system: Human venous whole blood; test: Human whole blood IFN-γ assay; format: cell-based; settings: human whole blood, read-out: INFg Whole Blood Normalized Agonist EC50;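 note: blood from healthy donors exposed to compound for 1 h before stimulation with anti-CD3 and anti-CD28 at 1 µg/mL each, IFN-γ quantified in supernatant by AlphaLISA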
Procedure: Human Whole Blood IFN-γ Assay
Human venous whole blood (22.5 μL per well), obtained from healthy donors, was pre-treated with compounds for one hour at 37° C. in a humidified 95% air/5% CO2 incubator. The blood was stimulated with 2.5 μL anti-human CD3 and anti-CD28 mAb at a final concentration of 1 μg/mL each for 24 hours at 37° C. IFN-γ in the supernatants was measured using AlphLISA kit (Cat # AL217).

[4] = normalized to 3 μM reference compound with anti-CD3 plus anti-CD28 as 100% activation
[5] = Homo sapiens, 24 h, normalized to 3 μM reference compound with anti-CD3 plus anti-CD28 as 100% activation
[6] = anti-CD3 plus anti-CD28, 24 hours, 3 μM reference compound = 100% activation
[7] = Homo sapiens, 24 h, anti-CD3 plus anti-CD28, 24 hours, 3 μM reference compound = 100% activation

| SMILES | IC50 ([1]; liposome (LIPGLO) assay) | IC50 ([2]; liposome (LIPGLO) assay) | EC50 [3, 4] | EC50 [3, 5] | IC50 ([1]; DGKα liposome (LIPGLO) assay) | IC50 ([2]; DGKζ liposome (LIPGLO) assay) | EC50 [3, 6] | EC50 [3, 7] |
| --- | --- | --- | --- | --- | --- | --- | --- | --- |
| CC(c1ccc(C2CC2)cc1)N1C[C@H](C)N(c2cc(=O)n(C)c3ccc(C#N)nc23)C[C@H]1C (single isomer, unassigned) [Example 1214] | 0.075 µM | 0.075 µM | 0.22 µM | – | – | – | – | – |
| C[C@@H]1CN(c2cc(=O)n(C)c3ccc(C#N)nc23)[C@@H](C)CN1Cc1noc2ccccc12 [Example 1433] | 2.5 µM | 2.8 µM | – | 13 µM | – | – | – | – |
| C[C@@H]1CN(c2c(C#N)c(=O)n(C)c3ccc(C#N)nc23)[C@@H](C)CN1C(c1ccc(F)cc1)c1ncccc1F (single isomer, unassigned) [Example 821] | – | – | – | – | 2.7 µM | 6.5 µM | 3.4 µM | – |
| C[C@@H]1CN(c2cc(=O)n(C)c3ccc(C#N)nc23)[C@@H](C)CN1C(c1ccc(F)cc1)c1csc(C(F)(F)F)n1 (single isomer, unassigned) [Example 1333] | 0.37 µM | 0.16 µM | – | 0.31 µM | – | – | – | – |
| C[C@@H]1CN(c2c(C#N)c(=O)n(C)c3ccc(C#N)nc23)CCN1C(c1ccc(F)cc1)c1cn(C)cn1 (single isomer, unassigned) [Example 1026] | 20 µM | 65 µM | 20 µM | – | – | – | – | – |
| Cc1ccc(C(c2ncccc2F)N2CCN(c3c(C#N)c(=O)n(C)c4ccc(C#N)nc34)C[C@H]2C)cc1 (single isomer, unassigned) [Example 892] | – | – | – | – | 1.8 µM | 1.3 µM | 5 µM | – |
| CC[C@H]1CN(C(C)c2ccc(F)cc2)[C@H](CC)CN1c1cc(=O)n(C)c2ccc(C#N)nc12 (single isomer, unassigned) [Example 1050] | 0.51 µM | 0.9 µM | 4.4 µM | – | – | – | – | – |
| CC(c1ccc(C(F)(F)F)cc1)N1C[C@@H](C)N(c2cc(=O)n(C)c3ccc(C#N)nc23)C[C@@H]1C (single isomer, unassigned) [Example 346] | 1.3 µM | 1.5 µM | 1.1 µM | – | – | – | – | – |
| Cc1ccc(C(c2ccc(F)cc2)N2CCN(c3c(C#N)c(=O)n(C)c4ccc(C#N)nc34)C[C@H]2C)cc1 (stereo partly drawn) [Example 888] | – | – | – | – | 0.51 µM | 0.33 µM | – | 1.2 µM |
| Cc1cccc(C(c2ccc(F)cc2)N2C[C@H](C)N(c3c(C#N)c(=O)n(C)c4ccc(C#N)nc34)C[C@H]2C)n1 (stereo partly drawn) [Example 816] | – | – | – | – | 2.6 µM | 3.1 µM | 1.1 µM | – |
| CC(c1ccc(P(C)(C)=O)cc1)N1C[C@H](C)N(c2cc(=O)n(C)c3ccc(C#N)nc23)C[C@H]1C (stereo partly drawn) [Example 1290] | 170 µM | 43 µM | – | 20 µM | – | – | – | – |
| CC(c1ccc(C2CC2)cc1F)N1C[C@H](C)N(c2cc(=O)n(C)c3ccc(C#N)nc23)C[C@H]1C (single isomer, unassigned) [Example 1200] | 0.25 µM | 0.053 µM | – | 0.23 µM | – | – | – | – |
| CCn1cc(F)c2c(CN3C[C@H](C)N(c4cc(=O)n(C)c5ccc(C#N)nc45)C[C@H]3C)cccc21 [Example 596] | 8.9 µM | 0.58 µM | – | 15 µM | – | – | – | – |
| CC[C@H]1CN(C(C)c2ccc3c(c2)OC(F)(F)O3)[C@H](CC)CN1c1cc(=O)n(C)c2ccc(C#N)nc12 (single isomer, unassigned) [Example 1369] | 1.4 µM | 0.75 µM | 1.3 µM | – | – | – | – | – |
| Cc1ccc(C(c2cccc(F)c2)N2CCN(c3c(C#N)c(=O)n(C)c4ccc(C#N)nc34)C[C@H]2C)nc1 (single isomer, unassigned) [Example 923] | – | – | – | – | 5.5 µM | 1.9 µM | – | 0.8 µM |
| C[C@@H]1CN(c2c(C#N)c(=O)n(C)c3ccc(C#N)nc23)[C@@H](C)CN1C(c1ccc(Cl)cc1)c1ccc(F)cn1 (single isomer, unassigned) [Example 829] | – | – | – | – | 5.5 µM | 8 µM | – | 1.2 µM |
| C[C@@H]1CN(c2cc(=O)n(C)c3ccc(C#N)nc23)[C@@H](C)CN1C(c1ccc(F)cc1)c1c(F)cc(F)cc1F (single isomer, unassigned) [Example 692] | 0.81 µM | 2.5 µM | 0.68 µM | – | – | – | – | – |
